Test results as given in patent US6362188B1, “Farnesyl protein transferase inhibitors” (Schering Corporation, priority 1998, dated 2002).

Key:
Human tumor cells = experiment: Soft Agar Assay (anchorage-independent growth); format: cell-based; details: colony outgrowth in soft agar, stated as a range for the group
Description: Anchorage-independent growth is a characteristic of tumorigenic cell lines. Human tumor cells can be suspended in growth medium containing 0.3% agarose and an indicated concentration of a farnesyl transferase inhibitor. The solution can be overlayed onto growth medium solidified with 0.6% agarose containing the same concentration of farnesyl transferase inhibitor as the top layer. After the top layer is solidified, plates can be incubated for 10-16 days at 37° C. under 5% CO2 to allow colony outgrowth. After incubation, the colonies can be stained by overlaying the agar with a solution of MTT (3-[4,5-dimethyl-thiazol-2-yl]-2,5-diphenyltetrazolium bromide, Thiazolyl blue) (1 mg/mL in PBS). Colonies can be counted and the IC50's can be determined.

SMILES	IC50 (Human tumor cells) [nM]	melting point [°C]
Cc1nccn1CC1CCCN(C(=O)C2CN(C3c4ccc(Cl)cc4CCc4cccnc43)CCN2C(=O)OC(C)(C)C)C1 (stereo not shown) [Example 26]	0.5 to 30	120 to 132
CCc1cn(CC2CCCN(C(=O)C3CN(C4c5ccc(Cl)cc5CCc5cccnc54)CCN3C(=O)OC(C)(C)C)C2)cn1 (stereo not shown) [35(A)]	0.05 to 30	110 to 112
Cc1nccn1CC1CCCN(C(=O)C2CN(C3c4ccc(Cl)cc4CCc4cc(Br)cnc43)CCN2C(=O)OC(C)(C)C)C1 (stereo not shown) [Example 3]	0.5 to 30	126 to 131
CC(C)(C)OC(=O)N1CCN([C@@H]2c3ccc(Cl)cc3CCc3cc(Br)cnc32)C[C@@H]1C(=O)N1CCC[C@H](Cn2ccnc2)C1 [Example 10]	0.5 to 30	130 to 134
CC(C)(C)NC(=O)N1CCN([C@@H]2c3ccc(Cl)cc3CCc3cc(Br)cnc32)C[C@@H]1C(=O)N1CCC[C@@H](Cn2ccnc2)C1 [Example 16]	0.5 to 30	148 to 153
O=C(C1CN(C2c3ccc(Cl)cc3CCc3cccnc32)CCN1C(=O)OC1CCCCC1)N1CCCC(Oc2cccnc2)C1 (stereo not shown) [47(U)]	0.05 to 30	117 to 120
Cn1cncc1CC1CCCN(C(=O)C2CN(C3c4ccc(Cl)cc4CCc4cccnc43)CCN2C(=O)OC2CCCCC2)C1 (stereo not shown) [47(K)]	0.05 to 30	101 to 123
CC(C)(C)OC(=O)N1CCN(C2c3ccc(Cl)cc3CCc3cccnc32)CC1C(=O)N1CCCC(Cn2ccnc2)C1 (stereo not shown) [Example 24]	0.5 to 30	115 to 126
Cc1cn(CC2CCCN(C(=O)C3CN(C4c5ccc(Cl)cc5CCc5cccnc54)CCN3C(=O)OC(C)(C)C)C2)cn1 (single isomer, unassigned) [Example 29]	0.5 to 30	109 to 124
CCc1cn(CC2CCCN(C(=O)C3CN(C4c5ccc(Cl)cc5CCc5cccnc54)CCN3C(=O)OC3CCCCC3)C2)cn1 (stereo not shown) [47(D)]	0.05 to 30	66 to 68
O=C(C1CN(C2c3ccc(Cl)cc3CCc3cccnc32)CCN1C(=O)OC1CCCCC1)N1CCCC(Cc2cnc[nH]2)C1 (stereo not shown) [47(I)]	0.05 to 30	113 to 115
Cc1nccn1CC1CCCN(C(=O)C2CN(C3c4ccc(Cl)cc4CCc4cc(Br)cnc43)CCN2C(=O)OC(C)(C)C)C1 (stereo not shown) [Example 4]		128 to 133
CC(C)OC(=O)N1CCN([C@@H]2c3ccc(Cl)cc3CCc3cc(Br)cnc32)C[C@@H]1C(=O)N1CCC[C@@H](Cn2ccnc2)C1 [Example 14]	0.5 to 30	126 to 128
Cc1cn(CC2CCCN(C(=O)C3CN(C4c5ccc(Cl)cc5CCc5cccnc54)CCN3C(=O)OC3CCCCC3)C2)cn1 (stereo not shown) [47(A)]		122 to 127
Cc1cn(CC2CCCN(C(=O)C3CN(C4c5ccc(Cl)cc5CCc5cccnc54)CCN3C(=O)OC(C)C)C2)cn1 (stereo not shown) [41(A)]		117 to 120
Cc1cn(CC2CCCN(C(=O)C3CN(C4c5ccc(Cl)cc5CCc5cccnc54)CCN3C(=O)OC3CCCCC3)C2)cn1 (stereo not shown) [47(B)]		133 to 139
CCc1cn(CC2CCCN(C(=O)C3CN(C4c5ccc(Cl)cc5CCc5cccnc54)CCN3C(=O)OC(C)(C)C)C2)cn1 (stereo not shown) [35(D)]		79 to 81
Cc1cn(CC2CCCN(C(=O)C3CN(C4c5ccc(Cl)cc5CCc5cccnc54)CCN3C(=O)OC(C)C)C2)cn1 (stereo not shown) [Example 37]		95 to 111
Cc1cn(CC2CCCN(C(=O)C3CN(C4c5ccc(Cl)cc5CCc5cccnc54)CCN3C(=O)OC(C)C)C2)cn1 (stereo not shown) [41(B)]		101 to 120
CC(C)(C)OC(=O)N1CCN(C2c3ccc(Cl)cc3CCc3cccnc32)CC1C(=O)N1CCCC(Cn2ccnc2)C1 (stereo not shown) [Example 25]		124 to 143
CC(C)OC(=O)N1CCN([C@@H]2c3ccc(Cl)cc3CCc3cc(Br)cnc32)C[C@@H]1C(=O)N1CCC[C@H](Cn2ccnc2)C1 [Example 19]		123 to 132

Now from value to compound:

IC50 (Human tumor cells) [nM]	melting point [°C]	SMILES
0.5 to 30	111 to 140	Cc1nccn1C[C@H]1CCCN(C(=O)[C@H]2CN([C@H]3c4ccc(Cl)cc4CCc4cccnc43)CCN2C(=O)NC(C)(C)C)C1 [Example 48]
0.05 to 30	99 to 107	Cc1cn(CC2CCCN(C(=O)C3CN(C4c5ccccc5CCc5cc(Cl)cnc54)CCN3C(=O)OC(C)(C)C)C2)cn1 (single isomer, unassigned) [Example 291]
0.05 to 30	110 to 116	Cc1cn(C[C@@H]2CCCN(C(=O)[C@H]3CN([C@@H]4c5ccc(Cl)cc5CCc5cc(F)cnc54)CCN3C(=O)OC(C)(C)C)C2)cn1 [Example 260]
0.05 to 30	122 to 125	Cc1cn(C[C@@H]2CCCN(C(=O)[C@H]3CN([C@@H]4c5ccccc5CCc5cc(Br)cnc54)CCN3C(=O)OC3CCCCC3)C2)cn1 [Example 352]
0.05 to 30	121 to 127	Cc1cn(C[C@H]2CCCN(C(=O)[C@H]3CN([C@H]4c5ccccc5CCc5cc(Br)cnc54)CCN3C(=O)OC3CCCCC3)C2)cn1 [Example 353]
0.05 to 30	120 to 126	Cc1cn(C[C@H]2CCCN(C(=O)[C@H]3CN([C@H]4c5ccc(Cl)cc5CCc5cc(F)cnc54)CCN3C(=O)OC3CCCCC3)C2)cn1 [Example 289]
0.05 to 30	104 to 111	Cc1cn(C[C@@H]2CCCN(C(=O)[C@H]3CN([C@@H]4c5ccccc5CCc5cc(F)cnc54)CCN3C(=O)OC3CCCCC3)C2)cn1 [Example 384]
0.5 to 30	112 to 135	Cc1nccn1CC1CCCN(C(=O)C2CN(C3c4ccc(Cl)cc4CCc4cccnc43)CCN2C(=O)OC2CCCCC2)C1 (single isomer, unassigned) [Example 44]
0.05 to 30	115 to 128	Cc1cn(C[C@H]2CCCN(C(=O)[C@H]3CN([C@H]4c5ccc(Cl)cc5CCc5cc(Cl)cnc54)CCN3C(=O)OC3CCCCC3)C2)cn1 [Example 257]
0.05 to 30	112 to 121	Cc1cn(C[C@H]2CCCN(C(=O)[C@H]3CN([C@H]4c5ccccc5CCc5cc(Cl)cnc54)CCN3C(=O)OC3CCCCC3)C2)cn1 [Example 321]
0.05 to 30	121 to 125	Cc1cn(C[C@H]2CCCN(C(=O)[C@H]3CN([C@@H]4c5ccc(Cl)cc5CCc5cc(F)cnc54)CCN3C(=O)OC3CCCCC3)C2)cn1 [Example 290]
0.05 to 30	126 to 135	Cc1cn(C[C@@H]2CCCN(C(=O)[C@H]3CN([C@H]4c5ccc(Cl)cc5CCc5cc(F)cnc54)CCN3C(=O)OC(C)(C)C)C2)cn1 [Example 259]
0.05 to 30	109 to 124	Cc1cn(C[C@@H]2CCCN(C(=O)[C@H]3CN([C@H]4c5ccccc5CCc5cc(Br)cnc54)CCN3C(=O)OC(C)(C)C)C2)cn1 [Example 323]
0.05 to 30	124 to 128	Cc1cn(CC2CCCN(C(=O)C3CN(C4c5ccccc5CCc5cc(Br)cnc54)CCN3C(=O)OC3CCCCC3)C2)cn1 (stereo not shown) [Example 354]
0.05 to 30	121 to 126	Cc1cn(C[C@@H]2CCCN(C(=O)[C@H]3CN([C@H]4c5ccccc5CCc5cc(F)cnc54)CCN3C(=O)OC3CCCCC3)C2)cn1 [Example 383]
0.05 to 30	120 to 124	Cc1cn(C[C@@H]2CCCN(C(=O)[C@H]3CN([C@H]4c5ccccc5CCc5cc(Br)cnc54)CCN3C(=O)OC3CCCCC3)C2)cn1 [Example 351]
	111 to 125	Cc1nccn1CC1CCCN(C(=O)C2CN(C3c4ccc(Cl)cc4CCc4cccnc43)CCN2C(=O)OC(C)C)C1 (single isomer, unassigned) [Example 39]
0.05 to 30	102 to 119	Cc1cn(C[C@@H]2CCCN(C(=O)[C@H]3CN([C@@H]4c5ccccc5CCc5cc(Br)cnc54)CCN3C(=O)OC(C)(C)C)C2)cn1 [Example 324]
0.05 to 30	95 to 105	Cc1cn(CC2CCCN(C(=O)C3CN(C4c5ccccc5CCc5cc(Cl)cnc54)CCN3C(=O)OC(C)(C)C)C2)cn1 (stereo not shown) [Example 292]
0.05 to 30	117 to 125	Cc1cn(C[C@H]2CCCN(C(=O)[C@H]3CN([C@@H]4c5ccccc5CCc5cc(Cl)cnc54)CCN3C(=O)OC3CCCCC3)C2)cn1 [Example 322]
0.05 to 30	85 to 90	Cc1cn(C[C@@H]2CCCN(C(=O)[C@H]3CN([C@H]4c5ccc(Cl)cc5CCc5ccc[n+]([O-])c54)CCN3C(=O)OC3CCCCC3)C2)cn1 [Example 387]
0.05 to 30	115 to 118	Cc1cn(C[C@H]2CCCN(C(=O)[C@H]3CN([C@H]4c5ccc(Cl)cc5CCc5cc(F)cnc54)CCN3C(=O)OC(C)(C)C)C2)cn1 [Example 261]
0.05 to 30	115 to 120	Cc1cn(C[C@@H]2CCCN(C(=O)[C@H]3CN([C@@H]4c5ccccc5CCc5cc(Cl)cnc54)CCN3C(=O)OC3CCCCC3)C2)cn1 [Example 320]
	95 to 100	Cc1nccn1CC1CCCN(C(=O)C2CN(C3c4ccc(Cl)cc4CCc4cccnc43)CCN2C(=O)OC(C)C)C1 (single isomer, unassigned) [Example 41]
	108 to 118	Cc1cn(CC2CCCN(C(=O)C3CN(C4c5ccc(Cl)cc5CCc5cccnc54)CCN3C(=O)OC3CCCCC3)C2)cn1 (stereo not shown) [Example 43]
	108 to 123	Cc1nccn1CC1CCCN(C(=O)C2CN(C3c4ccc(Cl)cc4CCc4cccnc43)CCN2C(=O)OC2CCCCC2)C1 (single isomer, unassigned) [Example 45]
	107 to 112	Cc1nccn1CC1CCCN(C(=O)C2CN(C3c4ccc(Cl)cc4CCc4cccnc43)CCN2C(=O)OC(C)C)C1 (single isomer, unassigned) [Example 40]
